Converted amounts (≈) assume the structure as drawn.
Legend:
S. aureus ATCC 29213 = assay: microbe, parasite or virus in culture; type: cell-based; settings: Staphylococcus aureus, ATCC29213; Table 1; S. aureus ATCC 29213; broth microdilution, CLSI M100-ED34; read-out: MIC
A. baumannii 7979 = assay: microbe, parasite or virus in culture; type: cell-based; settings: Acinetobacter baumannii; Table 1; A. baumannii 7979; broth microdilution; read-out: MIC
Method: (§1) Bacterial strains and growth conditions: All Gram-negative and Gram-positive bacterial strains (Supplementary Table S8) were cultured in Luria-Bertani (LB) or trypticase soy broth (TSB) agar plates, respectively, and incubated overnight at 37 °C unless specifically indicated. A single colony of the tested bacterial strains was inoculated into medium broth with shaking at 220 rpm for further experiments.
(§2) Minimal inhibitory concentrations: Antimicrobial susceptibility testing was performed by broth microdilution method for AMPs against Gram-positive and Gram-negative pathogens above mentioned, following the methods of document CLSI M100-ED34.[43] The MICs were defined as the lowest concentrations that inhibit visible growth of the tested bacteria. E. coli ATCC 25,922 and S. aureus ATCC 29,213 were served as quality controls.

A. baumannii AB11 = assay: microbe, parasite or virus in culture; type: cell-based; settings: Acinetobacter baumannii; Table 1; A. baumannii AB11; broth microdilution; read-out: MIC
Method: as §1, §2

E. coli ATCC 25922 = assay: microbe, parasite or virus in culture; type: cell-based; settings: Escherichia coli, ATCC25922; Table 1; E. coli ATCC 25922; broth microdilution; read-out: MIC
Method: as §1, §2

E. faecalis ES01 = assay: microbe, parasite or virus in culture; type: cell-based; settings: Enterococcus faecalis; Table 1; E. faecalis ES01; ermB, vanB; broth microdilution; read-out: MIC
Method: as §1, §2

E. faecalis J2 = assay: microbe, parasite or virus in culture; type: cell-based; settings: Enterococcus faecalis; Table 1; E. faecalis J2; ermB, optrA; broth microdilution; read-out: MIC
Method: as §1, §2

E. faecalis JH2-2 = assay: microbe, parasite or virus in culture; type: cell-based; settings: Enterococcus faecalis, JH22; Table 1; E. faecalis JH2-2; broth microdilution; read-out: MIC
Method: as §1, §2

E. faecalis SF23-1 = assay: microbe, parasite or virus in culture; type: cell-based; settings: Enterococcus faecalis, SF231; Table 1; E. faecalis SF23-1; ermB, tetL, cfr; broth microdilution; read-out: MIC
Method: as §1, §2

E. faecium HFY01 = assay: microbe, parasite or virus in culture; type: cell-based; settings: Enterococcus faecium; Table 1; E. faecium HFY01; broth microdilution; read-out: MIC
Method: as §1, §2

E. faecium MC38 = assay: microbe, parasite or virus in culture; type: cell-based; settings: Enterococcus faecium; Table 1; E. faecium MC38; ermB, optrA; broth microdilution; read-out: MIC
Method: as §1, §2

E. faecium QF31 = assay: microbe, parasite or virus in culture; type: cell-based; settings: Enterococcus faecium; Table 1; E. faecium QF31; ermB, cfr; broth microdilution; read-out: MIC
Method: as §1, §2

K. pneumoniae 9-1 = assay: microbe, parasite or virus in culture; type: cell-based; settings: Klebsiella pneumoniae, 91; Table 1; K. pneumoniae 9-1; broth microdilution; read-out: MIC
Method: as §1, §2

P. aeruginosa PA14 = assay: microbe, parasite or virus in culture; type: cell-based; settings: Pseudomonas aeruginosa; Table 1; P. aeruginosa PA14; broth microdilution; read-out: MIC
Method: as §1, §2

P. aeruginosa PAO1 = assay: microbe, parasite or virus in culture; type: cell-based; settings: Pseudomonas aeruginosa; Table 1; P. aeruginosa PAO1; broth microdilution; read-out: MIC
Method: as §1, §2

S. agalactiae DL03 = assay: microbe, parasite or virus in culture; type: cell-based; settings: Streptococcus agalactiae; Table 1; S. agalactiae DL03; ermB; broth microdilution; read-out: MIC
Method: as §1, §2

S. aureus M147-2 = assay: microbe, parasite or virus in culture; type: cell-based; settings: Staphylococcus aureus, M1472; Table 1; S. aureus M147-2; ermB, tetL, cfr; broth microdilution; read-out: MIC
Method: as §1, §2

S. aureus M92-1 = assay: microbe, parasite or virus in culture; type: cell-based; settings: Staphylococcus aureus, M921; Table 1; S. aureus M92-1; ermB, tetL, optrA; broth microdilution; read-out: MIC
Method: as §1, §2

S. aureus YZSA-15 = assay: microbe, parasite or virus in culture; type: cell-based; settings: Staphylococcus aureus, YZSA15; Table 1; S. aureus YZSA-15; ermC, vanB; broth microdilution; read-out: MIC
Method: as §1, §2

S. aureus YZSA-21 = assay: microbe, parasite or virus in culture; type: cell-based; settings: Staphylococcus aureus, YZSA21; Table 1; S. aureus YZSA-21; ermC; broth microdilution; read-out: MIC
Method: as §1, §2

S. aureus YZSA-24 = assay: microbe, parasite or virus in culture; type: cell-based; settings: Staphylococcus aureus, YZSA24; Table 1; S. aureus YZSA-24; ermC, mecA; broth microdilution; read-out: MIC
Method: as §1, §2

S. pyogenes DL02 = assay: microbe, parasite or virus in culture; type: cell-based; settings: Streptococcus pyogenes; Table 1; S. pyogenes DL02; ermB; broth microdilution; read-out: MIC
Method: as §1, §2

S. suis SH0918 = assay: microbe, parasite or virus in culture; type: cell-based; settings: Streptococcus suis; Table 1; S. suis SH0918; ermB, tetO, optrA; broth microdilution; read-out: MIC
Method: as §1, §2

S. suis P1/7 = assay: microbe, parasite or virus in culture; settings: Streptococcus suis, P1/7
Method: as §1
as §2, with “bacteria.” for “bacteria. E. coli ATCC 25,922 and S. aureus ATCC 29,213 were served as quality controls.”

S. enteritis S1 = assay: organism not typed; type: cell-based; settings: Table 1; S. enteritis S1; broth microdilution; read-out: MIC
Method: as §1, §2

MIC (S. aureus ATCC 29213): 1 mg/L (≈ 2.34 µM)
MIC (A. baumannii 7979): > 64 mg/L
MIC (A. baumannii AB11): 16 mg/L (≈ 37.4 µM)
MIC (E. coli ATCC 25922): 0.25 mg/L (≈ 0.585 µM)
MIC (E. faecalis ES01): > 64 mg/L
MIC (E. faecalis J2): > 64 mg/L
MIC (E. faecalis JH2-2): > 64 mg/L
MIC (E. faecalis SF23-1): > 64 mg/L
MIC (E. faecium HFY01): 8 mg/L (≈ 18.7 µM)
MIC (E. faecium MC38): > 64 mg/L
MIC (E. faecium QF31): > 64 mg/L
MIC (K. pneumoniae 9-1): > 64 mg/L
MIC (P. aeruginosa PA14): > 64 mg/L
MIC (P. aeruginosa PAO1): > 64 mg/L
MIC (S. agalactiae DL03): 4 mg/L (≈ 9.36 µM)
MIC (S. aureus M147-2): 4 mg/L (≈ 9.36 µM)
MIC (S. aureus M92-1): 4 mg/L (≈ 9.36 µM)
MIC (S. aureus YZSA-15): 2 mg/L (≈ 4.68 µM)
MIC (S. aureus YZSA-21): 4 mg/L (≈ 9.36 µM)
MIC (S. aureus YZSA-24): 32 mg/L (≈ 74.9 µM)
MIC (S. pyogenes DL02): 1 mg/L (≈ 2.34 µM)
MIC (S. suis SH0918): 8 mg/L (≈ 18.7 µM)
MIC (S. suis P1/7): 1 mg/L (≈ 2.34 µM)
MIC (S. enteritis S1): 32 mg/L (≈ 74.9 µM)
Structure (SMILES): CO[C@@]1(NC(=O)Cc2cccs2)C(=O)N2C(C(=O)O)=C(COC(N)=O)CS[C@@H]21 [FOX, Cefoxitin]

Reference: publication PMC12203862, “BroadAMP-GPT: AI-Driven generation of broad-spectrum antimicrobial peptides for combating multidrug-resistant ESKAPE pathogens” (Gut Microbes, 2025)
